Legend:
TAF3 PHD finger = assay type: binding
ING3 PHD finger = assay type: binding
ING3 PHD = assay type: binding; conditions: 1 h, 4°C; pH 7.5
SPIN1 TUDOR = assay type: binding; conditions: 1 h, 4°C; pH 7.5
KDM7A PHD finger = assay type: binding
PHF2 PHD finger = assay type: binding
PHF23 PHD finger = assay type: binding
PHF2 PHD = assay type: binding; conditions: 1 h, 4°C; pH 7.5
endogenous PHF2 = assay type: binding; conditions: 1 h, 4°C
endogenous SPIN1 = assay type: binding; conditions: 1 h, 4°C
Set7/9 = assay type: biochemical; conditions: pH 8.5

Substance: PRRK(me3)QQAPRRSA-Biotin (PRRKQQAPRRSA) [TSHZ1 K4me3]
- interaction with TAF3 PHD finger (TAF3 PHD finger): bound
- interaction with ING3 PHD finger (ING3 PHD finger): bound
- pull-down of GST-ING3 PHD (ING3 PHD): methylation-dependent interactions
- pull-down of GST-SPIN1 TUDOR (SPIN1 TUDOR): interacted

Substance: VRTK(me3)ADSVPGTY-Biotin [PCLAF K4me3]
- interaction with KDM7A PHD finger (KDM7A PHD finger): only recognized KDM7A

Substance: SRRK(me3)QGNPQHLS-Biotin [BCL11B K4me3]
- interaction with PHF2 PHD finger (PHF2 PHD finger): interacted
- interaction with TAF3 PHD finger (TAF3 PHD finger): interacted
- interaction with KDM7A PHD finger (KDM7A PHD finger): interacted
- interaction with PHF23 PHD finger (PHF23 PHD finger): selectively interacted
- pull-down of GST-PHF2 PHD (PHF2 PHD): strongly interacted
- pull-down of GST-SPIN1 TUDOR (SPIN1 TUDOR): interacted
- enrichment of endogenous PHF2 (endogenous PHF2): very weakly
- enrichment of endogenous SPIN1 (endogenous SPIN1): enriched
- methylation by Set7/9 (Set7/9): could not methylate

From publication PMC8166343 (Biochemical Journal, 2021)
